Test results: PubChem BioAssay (NCI)
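Cells were grown in 96-well plates and exposed to each compound for 48 hours at five concentrations; endpoints were interpolated linearly between bracketing concentrations, or set to the highest concentration if not reached. The concentration for full growth arrest is given as TGI.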

Legend:
Experiment in all cases: growth of human tumour cells (NCI), 48 h
SNB-75 CNS = system: SNB-75 CNS
ACHN renal = system: ACHN renal
OVCAR-8 ovarian = system: OVCAR-8 ovarian
U251 CNS = system: U251 CNS
HOP-62 NSCLC = system: HOP-62 NSCLC
MDA-N = system: MDA-N
HOP-92 NSCLC = system: HOP-92 NSCLC
SK-OV-3 ovarian = system: SK-OV-3 ovarian
A498 renal = system: A498 renal
SF-539 CNS = system: SF-539 CNS
UO-31 renal = system: UO-31 renal
SF-295 CNS = system: SF-295 CNS
TK-10 renal = system: TK-10 renal
NCI-H522 lung = system: NCI-H522 lung
HCC-2998 colon = system: HCC-2998 colon
CCRF-CEM leukemia = system: CCRF-CEM leukemia
HL-60(TB) leukemia = system: HL-60(TB) leukemia
OVCAR-5 ovarian = system: OVCAR-5 ovarian
DU-145 prostate = system: DU-145 prostate
HT29 colon = system: HT29 colon

| Structure (SMILES) | TGI (SNB-75 CNS) | TGI (ACHN renal) | TGI (OVCAR-8 ovarian) | TGI (U251 CNS) | TGI (HOP-62 NSCLC) | TGI (MDA-N) | TGI (HOP-92 NSCLC) | TGI (SK-OV-3 ovarian) | TGI (A498 renal) | TGI (SF-539 CNS) | TGI (UO-31 renal) | TGI (SF-295 CNS) | TGI (TK-10 renal) | TGI (NCI-H522 lung) | TGI (HCC-2998 colon) | TGI (CCRF-CEM leukemia) | TGI (HL-60(TB) leukemia) | TGI (OVCAR-5 ovarian) | TGI (DU-145 prostate) | TGI (HT29 colon) |
| --- | --- | --- | --- | --- | --- | --- | --- | --- | --- | --- | --- | --- | --- | --- | --- | --- | --- | --- | --- | --- |
| CSc1ncc2c(C#N)c3[nH]c4ccccc4n3c(=O)c2n1 | > 100 µM | > 100 µM | 98.8 µM | > 100 µM | > 100 µM | > 100 µM | > 100 µM | > 100 µM | 52.7 µM | > 100 µM | > 100 µM | > 100 µM | > 100 µM | > 100 µM | 42.7 µM | 27.8 µM | 25.1 µM | > 100 µM | > 100 µM | – |
| CC(=O)N1C(CCc2ccccc2)CC(C)(C=O)C1Cc1ccc(O[Si](C(C)C)(C(C)C)C(C)C)cc1 (centres undefined) | 18.4 µM | 18.8 µM | 18.6 µM | 13.3 µM | 25.9 µM | 6.4 µM | 23.7 µM | 29.3 µM | 14.3 µM | 6.03 µM | 14.3 µM | 19.6 µM | 13.7 µM | 5.95 µM | 4.62 µM | – | 4.42 µM | 28.8 µM | 18.9 µM | 9.99 µM |
| CC(C)[C@@H]1CC[C@@H](C)C[C@H]1OC(=O)/C=C1\C(C(=O)O[C@@H]2C[C@H](C)CC[C@H]2C(C)C)[C@H]2C=C[C@@H]1O2 (some centres undefined) | > 100 µM | > 100 µM | > 100 µM | > 100 µM | > 100 µM | > 100 µM | > 100 µM | > 100 µM | > 100 µM | > 100 µM | > 100 µM | > 100 µM | > 100 µM | > 100 µM | > 100 µM | > 100 µM | 76.1 µM | > 100 µM | > 100 µM | > 100 µM |
| CCO[C@@]12CCC3CC4CC[C@@](OCC)(O1)C4C32 (some centres undefined) | > 100 µM | > 100 µM | > 100 µM | > 100 µM | > 100 µM | > 100 µM | > 100 µM | > 100 µM | > 100 µM | > 100 µM | > 100 µM | > 100 µM | > 100 µM | > 100 µM | > 100 µM | > 100 µM | > 100 µM | > 100 µM | > 100 µM | > 100 µM |
| N#Cc1c(N)nc(SCc2ccccc2)c(C#N)c1-c1ccc(O)cc1 | 38.9 µM | 28.9 µM | 30.7 µM | 30.5 µM | 32.6 µM | 27.5 µM | 22 µM | 31.4 µM | 30.6 µM | 57.5 µM | 3.9 µM | 32.3 µM | > 64.7 µM | 36.3 µM | > 55.6 µM | 38.6 µM | 32.8 µM | 32.2 µM | 27.2 µM | 23.1 µM |
| O=C1N/C(=N\N=C\c2ccccc2)C2(CCCCC2)O1 | 88.5 µM | > 100 µM | > 100 µM | > 100 µM | > 100 µM | > 100 µM | > 100 µM | > 100 µM | > 100 µM | > 100 µM | > 100 µM | > 100 µM | > 100 µM | > 100 µM | > 100 µM | 61.1 µM | > 100 µM | > 100 µM | > 100 µM | > 100 µM |
| O=C1C=C(NCC(c2ccccc2)c2ccccc2)C(=O)c2ncccc21 | 2.77 µM | 13.4 µM | 11.5 µM | 11.4 µM | 4.02 µM | 3.38 µM | 12.9 µM | 47.6 µM | 9.69 µM | 8.55 µM | 12.2 µM | 3.51 µM | 51.5 µM | 3.57 µM | 2.12 µM | 9.7 µM | 3.32 µM | 10.1 µM | 4.74 µM | 25.8 µM |
| O=[N+]([O-])C(C(Cl)=C(Cl)Cl)=C(n1nnc2ccccc21)n1nnc2ccccc21 | > 58.1 µM | > 65.8 µM | 48.8 µM | 62.8 µM | > 68.4 µM | 61.2 µM | > 81.6 µM | > 58 µM | > 90 µM | 53.3 µM | 52.6 µM | > 67.9 µM | > 63.7 µM | 38.6 µM | > 67.1 µM | 43.9 µM | 13.5 µM | > 66.3 µM | > 100 µM | 59.6 µM |
| C[C@H](c1ccccc1)n1c(N)c(-c2nc3ccccc3s2)c2ccc([N+](=O)[O-])cc2c1=O | > 91.7 µM | 65.7 µM | > 100 µM | 53.3 µM | 56.9 µM | > 80.4 µM | 5.81 µM | > 100 µM | 75.2 µM | 54 µM | 18.4 µM | 50.8 µM | > 100 µM | > 19.7 µM | > 85.1 µM | – | 36.6 µM | > 100 µM | > 38.8 µM | > 52.7 µM |
| O=C(OCc1ccccc1)c1ccc(NCc2cc(O)ccc2O)cc1 | 3.39 µM | 2.77 µM | 2.75 µM | 2.64 µM | 20.1 µM | 4.6 µM | 2.23 µM | 11.2 µM | 3.21 µM | 2.27 µM | 2.61 µM | 17.1 µM | 3.87 µM | 0.883 µM | 6.12 µM | 2.8 µM | 2.56 µM | 13.9 µM | 13.5 µM | 20.3 µM |
| COc1ccc(CCc2ccc3c(c2)OCO3)cc1 | > 100 µM | > 100 µM | > 100 µM | > 100 µM | > 100 µM | > 100 µM | > 100 µM | > 100 µM | > 100 µM | > 100 µM | – | > 100 µM | > 100 µM | > 100 µM | > 100 µM | > 100 µM | > 100 µM | > 100 µM | > 100 µM | > 100 µM |
| O=CC(O)C(O)C1OC(=O)c2cc(O)c(O)c(O)c2C2=C(O)C(O)=C3OC(=O)c4c(c(O)c(O)c5c4C3C2C(=O)O5)-c2c(cc(O)c(O)c2O)C(=O)OCC1O (centres undefined) | > 100 µM | > 100 µM | 45.9 µM | 70.2 µM | > 100 µM | 41.1 µM | 98.2 µM | > 100 µM | > 100 µM | – | > 100 µM | > 100 µM | – | 86.4 µM | > 100 µM | > 100 µM | 67.7 µM | > 100 µM | > 100 µM | 42.9 µM |
